The record followed here is ChEMBL document CHEMBL1909046, “DrugMatrix in vitro pharmacology data”.

For orientation: IC50 means the midpoint of a concentration-inhibition curve. As usually defined, the Ki is the dissociation constant of the complex between target and ligand, obtained from inhibition or displacement.

Experiment [1] is described as follows: DRUGMATRIX: Tumor Necrosis Factor (TNF), Non-Selective radioligand binding (ligand: [125I] TNF-alpha). Type of experiment: cell membranes, Membrane. The settings on record: u-937; Not Active = under 50% inhibition at 10 µM.
Experiment [2] has as its target Aldo-keto reductase family 1 member B1 (Rattus norvegicus, UniProt P07943). Briefly: biochemical. Type of experiment: tissue-based, Lens of camera-type eye.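 Also: inhibition of aldose reductase enzyme activity, measured with DL-glyceraldehyde as the substrate; in other assays of this panel Not Active means under 50% inhibition at 10 µM.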
The nature of experiment [3]: DRUGMATRIX: Calcium Channel Type L, Dihydropyridine radioligand binding (ligand: [3H] Nitrendipine). The experiment is classed as cell membranes, Rattus norvegicus, Wistar, Cerebral cortex, Membrane. To be noted: Not Active = under 50% inhibition at 10 µM.
A short description of experiment [4]: DRUGMATRIX: Glutamate, Kainate radioligand binding (ligand: [3H] Kainic acid). The experiment is classed as cell membranes, Rattus norvegicus, Wistar, Brain, Membrane. To be noted: Not Active = under 50% inhibition at 10 µM.
The target of experiment [5] is T1, Alpha-1D adrenergic receptor (Homo sapiens, UniProt P25100). Also: in other assays of this panel Not Active means under 50% inhibition at 10 µM.
T1 sequence (P25100 whole entry): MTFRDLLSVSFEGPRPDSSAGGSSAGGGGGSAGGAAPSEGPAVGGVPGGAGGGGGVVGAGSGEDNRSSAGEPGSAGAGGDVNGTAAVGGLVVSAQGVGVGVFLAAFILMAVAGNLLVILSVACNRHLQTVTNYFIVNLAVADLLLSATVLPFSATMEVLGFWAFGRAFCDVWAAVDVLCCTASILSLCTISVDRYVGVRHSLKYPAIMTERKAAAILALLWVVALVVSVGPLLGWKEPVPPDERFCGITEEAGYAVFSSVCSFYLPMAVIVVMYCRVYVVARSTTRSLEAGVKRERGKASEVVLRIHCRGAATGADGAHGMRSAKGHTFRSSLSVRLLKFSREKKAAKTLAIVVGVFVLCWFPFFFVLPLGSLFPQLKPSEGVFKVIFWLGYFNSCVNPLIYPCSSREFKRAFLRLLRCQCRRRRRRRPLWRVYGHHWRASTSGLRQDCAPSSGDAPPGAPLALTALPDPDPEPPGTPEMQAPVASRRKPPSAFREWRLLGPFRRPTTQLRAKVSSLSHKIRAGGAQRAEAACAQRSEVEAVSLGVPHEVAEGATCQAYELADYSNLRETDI
The experiment is classed as cell membranes, HEK293, Membrane. The settings on record: hek293.

A short description of experiment [6]: DRUGMATRIX: ATPase, Na+/K+ enzyme inhibition (substrate: ATP). The experiment is classed as tissue-based, Sus scrofa, Heart. To be noted: Not Active = under 50% inhibition at 10 µM.
The target in experiment [7] is T2, Vasoactive intestinal polypeptide receptor 1 (Homo sapiens, UniProt P32241). Also: in other assays of this panel Not Active means under 50% inhibition at 10 µM.
T2 sequence (P32241 whole entry): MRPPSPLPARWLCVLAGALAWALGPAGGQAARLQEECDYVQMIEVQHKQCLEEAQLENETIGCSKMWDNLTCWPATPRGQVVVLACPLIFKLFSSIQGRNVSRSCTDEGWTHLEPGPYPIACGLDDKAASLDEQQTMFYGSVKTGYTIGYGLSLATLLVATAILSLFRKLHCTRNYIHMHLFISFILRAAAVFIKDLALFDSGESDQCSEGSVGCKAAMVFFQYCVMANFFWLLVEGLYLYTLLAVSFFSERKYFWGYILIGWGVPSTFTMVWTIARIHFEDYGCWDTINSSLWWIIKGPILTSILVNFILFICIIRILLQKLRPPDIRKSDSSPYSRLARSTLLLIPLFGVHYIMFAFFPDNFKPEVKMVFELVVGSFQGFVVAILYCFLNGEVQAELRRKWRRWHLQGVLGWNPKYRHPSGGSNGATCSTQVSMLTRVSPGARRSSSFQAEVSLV
The experiment is classed as cell membranes, Membrane. To be noted: ht-29.

As for `CC(C)(C(=O)c1cccnc1)c1cccnc1` [METYRAPONE], the concentration for half-maximal inhibition (IC50) entry in experiment [1], in experiment [2], in experiment [3], in experiment [4], in experiment [5] and in experiment [6] was “Not Active” in each case. Also, the half-inhibitory concentration (IC50) result in experiment [7] is listed as “Not Active”. The inhibitory constant (Ki) entry in experiment [1], in experiment [3], in experiment [4] and in experiment [6] was “Not Active” throughout.

For `Oc1ccc(OCc2ccccc2)cc1` [MONOBENZONE], the 50% inhibitory concentration (IC50) entry in experiment [1], in experiment [2], in experiment [3], in experiment [4], in experiment [5] and in experiment [6] was “Not Active” throughout. Further, in experiment [7], the IC50 entry is reported as “Not Active”. The inhibition constant Ki entry in experiment [1], in experiment [3], in experiment [4] and in experiment [6] was “Not Active” each time.

As for `CC(C)(Oc1ccc(C2CCCc3ccccc32)cc1)C(=O)O` (stereo unspecified) [NAFENOPIN], the 50% inhibitory concentration (IC50) entry in experiment [1], in experiment [2], in experiment [3], in experiment [4], in experiment [5] and in experiment [6] was “Not Active” throughout. The IC50 entry in experiment [7] is on record as “Not Active”. Further, the Ki result in experiment [1], in experiment [3], in experiment [4] and in experiment [6] was “Not Active” in each case.

In the case of `COc1ccc2cc([C@H](C)C(=O)O)ccc2c1` [NAPROXEN], the concentration for half-maximal inhibition (IC50) entry in experiment [1], in experiment [2], in experiment [3], in experiment [4], in experiment [5] and in experiment [6] was “Not Active” throughout. In addition, in experiment [7], the IC50 result is “Not Active”. Moreover, the inhibition constant Ki entry in experiment [1], in experiment [3], in experiment [4] and in experiment [6] was “Not Active” throughout.

Turning to `CC(C)[C@H]1CC[C@H](C(=O)N[C@H](Cc2ccccc2)C(=O)O)CC1` [NATEGLINIDE], the half-inhibitory concentration (IC50) result in experiment [1], in experiment [2], in experiment [3], in experiment [4], in experiment [5] and in experiment [6] was “Not Active” in each case. Besides, the half-maximal inhibitory concentration (IC50) result in experiment [7] was “Not Active”. For the same compound, the Ki entry in experiment [1], in experiment [3], in experiment [4] and in experiment [6] was “Not Active” throughout.

For the compound `CCN[C@@H]1C[C@H](N)[C@@H](O[C@H]2OC(CN)=CC[C@H]2N)[C@H](O)[C@H]1O[C@H]1OC[C@](C)(O)[C@H](NC)[C@H]1O` [NETILMICIN], the half-inhibitory concentration (IC50) result in experiment [1], in experiment [2], in experiment [3], in experiment [4], in experiment [5] and in experiment [6] was “Not Active” throughout. The concentration for half-maximal inhibition (IC50) result in experiment [7] is recorded as “Not Active”. Besides, the Ki result in experiment [1], in experiment [3], in experiment [4] and in experiment [6] was “Not Active” throughout.

Turning to `COC(=O)C1=C(C)NC(C)=C(C(=O)OCC(C)C)C1c1ccccc1[N+](=O)[O-]` (stereo unspecified) [NISOLDIPINE], the IC50 result in experiment [1] was “Not Active”; in experiment [2], “Not Active”; in experiment [3] (read-out: IC50), 0.741 nM; in experiment [4] it was “Not Active”; in experiment [5], “Not Active”; in experiment [6] it was “Not Active”. Further, the IC50 entry in experiment [7] was “Not Active”. Besides, the Ki result in experiment [1] is “Not Active”; in experiment [3] (read-out: Ki), 0.476 nM; in experiment [4] it was “Not Active”; in experiment [6] it was “Not Active”.

As for `CCOC(=O)C1=C(C)NC(C)=C(C(=O)OC)C1c1cccc([N+](=O)[O-])c1` (stereo unspecified) [NITRENDIPINE], the IC50 entry is “Not Active” in experiment [1]; “Not Active” in experiment [2]; 0.383 nM in experiment [3] (read-out: IC50); “Not Active” in experiment [4]; “Not Active” in experiment [5]; “Not Active” in experiment [6]. For the same compound, in experiment [7], the IC50 result is given as “Not Active”. For the same compound, the Ki entry in experiment [1] is “Not Active”; in experiment [3] (read-out: Ki), 0.246 nM; in experiment [4] it was “Not Active”; in experiment [6] it was “Not Active”.

Consider `C#C[C@]1(OC(C)=O)CC[C@H]2[C@@H]3CCC4=CC(=O)CC[C@@H]4[C@H]3CC[C@@]21C` [NORETHINDRONE ACETATE], for which the IC50 entry in experiment [1], in experiment [2], in experiment [3], in experiment [4], in experiment [5] and in experiment [6] was “Not Active” each time. For the same compound, the concentration for half-maximal inhibition (IC50) result in experiment [7] is given as “Not Active”. The inhibition constant Ki entry in experiment [1], in experiment [3], in experiment [4] and in experiment [6] was “Not Active” throughout.

On to `COc1ccc2[nH]c([S+]([O-])Cc3ncc(C)c(OC)c3C)nc2c1` (stereo unspecified) [OMEPRAZOLE], for which the IC50 result in experiment [1], in experiment [2], in experiment [3], in experiment [4], in experiment [5] and in experiment [6] was “Not Active” throughout. The 50% inhibitory concentration (IC50) entry in experiment [7] is on record as “Not Active”. The Ki entry in experiment [1], in experiment [3], in experiment [4] and in experiment [6] was “Not Active” throughout.

In the case of `Cc1nccn1CC1CCc2c(c3ccccc3n2C)C1=O` (stereo unspecified) [ONDANSETRON], the IC50 entry in experiment [1], in experiment [2], in experiment [3], in experiment [4], in experiment [5] and in experiment [6] was “Not Active” each time. In addition, the half-inhibitory concentration (IC50) result in experiment [7] is “Not Active”. For the same compound, the Ki entry in experiment [1], in experiment [3], in experiment [4] and in experiment [6] was “Not Active” throughout.

On to `CCn1cc(C(=O)O)c(=O)c2cc(F)c(N3CCN(C)CC3)cc21` [PEFLOXACIN], for which the IC50 entry in experiment [1], in experiment [2], in experiment [3], in experiment [4], in experiment [5] and in experiment [6] was “Not Active” in each case. Besides, the IC50 entry in experiment [7] is listed as “Not Active”. For the same compound, the Ki result in experiment [1], in experiment [3], in experiment [4] and in experiment [6] was “Not Active” each time.

`CCCCOc1ccc(OCCCN2CCOCC2)cc1` [PRAMOXINE]: the IC50 entry in experiment [1], in experiment [2], in experiment [3], in experiment [4], in experiment [5] and in experiment [6] was “Not Active” in each case. In experiment [7], the IC50 entry is given as “Not Active”. Besides, the inhibitory constant (Ki) result in experiment [1], in experiment [3], in experiment [4] and in experiment [6] was “Not Active” in each case.

In the case of `O=C(C1CCCCC1)N1CC(=O)N2CCc3ccccc3C2C1` (stereo unspecified) [PRAZIQUANTEL], the IC50 result in experiment [1], in experiment [2], in experiment [3], in experiment [4], in experiment [5] and in experiment [6] was “Not Active” in each case. For the same compound, the IC50 result in experiment [7] is “Not Active”. In addition, the Ki result in experiment [1], in experiment [3], in experiment [4] and in experiment [6] was “Not Active” throughout.

Take `CCN(CC)CCOC(=O)c1ccc(N)cc1` [PROCAINE]: the IC50 entry in experiment [1], in experiment [2], in experiment [3], in experiment [4], in experiment [5] and in experiment [6] was “Not Active” throughout. For the same compound, the concentration for half-maximal inhibition (IC50) entry in experiment [7] is on record as “Not Active”. Besides, the inhibitory constant (Ki) entry in experiment [1], in experiment [3], in experiment [4] and in experiment [6] was “Not Active” in each case.

Take `CCCN(CCC)C(=O)C(CCC(=O)O)NC(=O)c1ccccc1` (stereo unspecified) [PROGLUMIDE]: the half-inhibitory concentration (IC50) entry in experiment [1], in experiment [2], in experiment [3], in experiment [4], in experiment [5] and in experiment [6] was “Not Active” each time. In addition, in experiment [7], the IC50 result is “Not Active”. Also, the Ki result in experiment [1], in experiment [3], in experiment [4] and in experiment [6] was “Not Active” each time.
